In publication PMC9783573, “Introduction of a SiFA Moiety into the D-Glutamate Chain of DOTA-PP-F11N Results in Radiohybrid-Based CCK-2R-Targeted Compounds with Improved Pharmacokinetics In Vivo” (Pharmaceuticals, 2022):
Read-outs that look alike come from different tables or passages of the source. Values belong to the compound of their own block, whether it stands above or below them. Starred links: 1 amine or outer side, 2 acyl side, 3 side chain; linkers in the order of their positions; H or OH if unused. Non-standard residues stand in square brackets, D forms with d. Residues, ends and D or L forms follow the SMILES beside them. *: point of attachment. X1 = O=C(O)CN1CCN(CC(=O)O)CCN([C@H](CCC(=O)*)C(=O)O)CCN(CC(=O)O)CC1; Benzoyl(4-SiFtBu2) = CC(C)(C)[Si](F)(c1ccc(C(=O)*)cc1)C(C)(C)C; DOTA = O=C(O)CN1CCN(CC(=O)O)CCN(CC(=O)*)CCN(CC(=O)O)CC1; d(γGlu) = O=C(O)[C@@H](CCC(=O)[*:2])N[*:1]; Nle = CCCC[C@H](N)C(=O)O; dDap = NC[C@@H](N)C(=O)O

Assay: Lipophilicity, n-octanol/PBS (pH 7.4) distribution coefficient
Format: physicochemical
Experimental: Lipophilicity (depicted as octanol-phosphate-buffered saline solution (PBS, pH = 7.4) distribution coefficient, logD7.4) was determined via dissolving the ^177Lu-labelled peptide (approx. 1 MBq) in a mixture (1/1, v/v) of n-octanol and PBS. The suspension was vortexed in a reaction vial (1.5 mL) for 3 min at RT and the vial was centrifuged at 9000× […] for 5 min (Biofuge 15, Heraus Sepatech GmbH, Osterode, Germany). 200 μL aliquots of both layers were measured separately in a γ-counter (Perkin Elmer, Waltham, MA, USA). The experiment was repeated at least five times.

[1] = 177Lu-labelled peptide, n-octanol/PBS pH 7.4, read-out: logD7.4

Structure (SMILES): CCCC[C@H](NC(=O)[C@H](Cc1c[nH]c2ccccc12)NC(=O)CNC(=O)[C@H](Cc1ccc(O)cc1)NC(=O)[C@H](C)NC(=O)[C@@H](CCC(=O)O)NC(=O)[C@@H](CCC(=O)O)NC(=O)[C@@H](CCC(=O)O)NC(=O)[C@@H](CCC(=O)O)NC(=O)[C@@H](CCC(=O)O)NC(=O)[C@@H](CCC(=O)O)NC(=O)[C@@H](CNC(=O)c1ccc([Si](F)(C(C)(C)C)C(C)(C)C)cc1)NC(=O)CC[C@H](C(=O)O)N1CCN(CC(=O)O)CCN(CC(=O)O)CCN(CC(=O)O)CC1)C(=O)N[C@@H](CC(=O)O)C(=O)N[C@@H](Cc1ccccc1)C(N)=O [[nat/177Lu]Lu-(R)-DOTAGA-rhCCK-7, metal not drawn] (X1-[dDap](Benzoyl(4-SiFtBu2))[dE][dE][dE][dE][dE][dE]AYGW[Nle]DF-NH2)
logD [1]: -2.63 ± 0.08

Structure (SMILES): CCCC[C@H](NC(=O)[C@H](Cc1c[nH]c2ccccc12)NC(=O)CNC(=O)[C@H](Cc1ccc(O)cc1)NC(=O)[C@H](C)NC(=O)[C@@H](CCC(=O)O)NC(=O)[C@@H](CCC(=O)O)NC(=O)[C@@H](CCC(=O)O)NC(=O)[C@@H](CCC(=O)O)NC(=O)[C@@H](CCC(=O)O)NC(=O)[C@@H](CCC(=O)O)NC(=O)[C@@H](CCC(=O)O)NC(=O)[C@@H](CNC(=O)c1ccc([Si](F)(C(C)(C)C)C(C)(C)C)cc1)NC(=O)CC[C@H](C(=O)O)N1CCN(CC(=O)O)CCN(CC(=O)O)CCN(CC(=O)O)CC1)C(=O)N[C@@H](CC(=O)O)C(=O)N[C@@H](Cc1ccccc1)C(N)=O [[nat/177Lu]Lu-(R)-DOTAGA-rhCCK-8, metal not drawn] (X1-[dDap](Benzoyl(4-SiFtBu2))[dE][dE][dE][dE][dE][dE][dE]AYGW[Nle]DF-NH2)
logD [1]: -2.19 ± 0.08

Structure (SMILES): CCCC[C@H](NC(=O)[C@H](Cc1c[nH]c2ccccc12)NC(=O)CNC(=O)[C@H](Cc1ccc(O)cc1)NC(=O)[C@H](C)NC(=O)[C@@H](CNC(=O)c1ccc([Si](F)(C(C)(C)C)C(C)(C)C)cc1)NC(=O)CC[C@@H](NC(=O)CC[C@@H](NC(=O)CC[C@@H](NC(=O)CC[C@@H](NC(=O)CC[C@@H](NC(=O)CC[C@@H](NC(=O)CC[C@H](C(=O)O)N1CCN(CC(=O)O)CCN(CC(=O)O)CCN(CC(=O)O)CC1)C(=O)O)C(=O)O)C(=O)O)C(=O)O)C(=O)O)C(=O)O)C(=O)N[C@@H](CC(=O)O)C(=O)N[C@@H](Cc1ccccc1)C(N)=O [[nat/177Lu]Lu-(R)-DOTAGA-rhCCK-10, metal not drawn] ({X1-d(γGlu)-d(γGlu)-d(γGlu)-d(γGlu)-d(γGlu)-d(γGlu)}-[dDap](Benzoyl(4-SiFtBu2))AYGW[Nle]DF-NH2)
logD [1]: -2.15 ± 0.08

Structure (SMILES): CCCC[C@H](NC(=O)[C@H](Cc1c[nH]c2ccccc12)NC(=O)CNC(=O)[C@H](Cc1ccc(O)cc1)NC(=O)[C@H](C)NC(=O)CC[C@@H](NC(=O)[C@@H](CNC(=O)c1ccc([Si](F)(C(C)(C)C)C(C)(C)C)cc1)NC(=O)CC[C@@H](NC(=O)CC[C@@H](NC(=O)CC[C@@H](NC(=O)CC[C@@H](NC(=O)CC[C@@H](NC(=O)CC[C@H](C(=O)O)N1CCN(CC(=O)O)CCN(CC(=O)O)CCN(CC(=O)O)CC1)C(=O)O)C(=O)O)C(=O)O)C(=O)O)C(=O)O)C(=O)O)C(=O)N[C@@H](CC(=O)O)C(=O)N[C@@H](Cc1ccccc1)C(N)=O [[nat/177Lu]Lu-(R)-DOTAGA-rhCCK-11, metal not drawn] ({X1-d(γGlu)-d(γGlu)-d(γGlu)-d(γGlu)-d(γGlu)}-[dDap](Benzoyl(4-SiFtBu2))[d(γGlu)]AYGW[Nle]DF-NH2)
logD [1]: -2.23 ± 0.07

Structure (SMILES): CCCC[C@H](NC(=O)[C@H](Cc1c[nH]c2ccccc12)NC(=O)CNC(=O)[C@H](Cc1ccc(O)cc1)NC(=O)[C@H](C)NC(=O)CC[C@@H](NC(=O)CC[C@@H](NC(=O)[C@@H](CNC(=O)c1ccc([Si](F)(C(C)(C)C)C(C)(C)C)cc1)NC(=O)CC[C@@H](NC(=O)CC[C@@H](NC(=O)CC[C@@H](NC(=O)CC[C@@H](NC(=O)CC[C@H](C(=O)O)N1CCN(CC(=O)O)CCN(CC(=O)O)CCN(CC(=O)O)CC1)C(=O)O)C(=O)O)C(=O)O)C(=O)O)C(=O)O)C(=O)O)C(=O)N[C@@H](CC(=O)O)C(=O)N[C@@H](Cc1ccccc1)C(N)=O [[nat/177Lu]Lu-(R)-DOTAGA-rhCCK-12, metal not drawn] ({X1-d(γGlu)-d(γGlu)-d(γGlu)-d(γGlu)}-[dDap](Benzoyl(4-SiFtBu2))[d(γGlu)][d(γGlu)]AYGW[Nle]DF-NH2)
logD [1]: -2.34 ± 0.05

Structure (SMILES): CCCC[C@H](NC(=O)[C@H](Cc1c[nH]c2ccccc12)NC(=O)CNC(=O)[C@H](Cc1ccc(O)cc1)NC(=O)[C@H](C)NC(=O)CC[C@@H](NC(=O)CC[C@@H](NC(=O)CC[C@@H](NC(=O)[C@@H](CNC(=O)c1ccc([Si](F)(C(C)(C)C)C(C)(C)C)cc1)NC(=O)CC[C@@H](NC(=O)CC[C@@H](NC(=O)CC[C@@H](NC(=O)CC[C@H](C(=O)O)N1CCN(CC(=O)O)CCN(CC(=O)O)CCN(CC(=O)O)CC1)C(=O)O)C(=O)O)C(=O)O)C(=O)O)C(=O)O)C(=O)O)C(=O)N[C@@H](CC(=O)O)C(=O)N[C@@H](Cc1ccccc1)C(N)=O [[nat/177Lu]Lu-(R)-DOTAGA-rhCCK-13, metal not drawn] ({X1-d(γGlu)-d(γGlu)-d(γGlu)}-[dDap](Benzoyl(4-SiFtBu2))[d(γGlu)][d(γGlu)][d(γGlu)]AYGW[Nle]DF-NH2)
logD [1]: -2.57 ± 0.06

Structure (SMILES): CCCC[C@H](NC(=O)[C@H](Cc1c[nH]c2ccccc12)NC(=O)CNC(=O)[C@H](Cc1ccc(O)cc1)NC(=O)[C@H](C)NC(=O)CC[C@@H](NC(=O)CC[C@@H](NC(=O)CC[C@@H](NC(=O)CC[C@@H](NC(=O)[C@@H](CNC(=O)c1ccc([Si](F)(C(C)(C)C)C(C)(C)C)cc1)NC(=O)CC[C@@H](NC(=O)CC[C@@H](NC(=O)CC[C@H](C(=O)O)N1CCN(CC(=O)O)CCN(CC(=O)O)CCN(CC(=O)O)CC1)C(=O)O)C(=O)O)C(=O)O)C(=O)O)C(=O)O)C(=O)O)C(=O)N[C@@H](CC(=O)O)C(=O)N[C@@H](Cc1ccccc1)C(N)=O [[nat/177Lu]Lu-(R)-DOTAGA-rhCCK-14, metal not drawn] ({X1-d(γGlu)-d(γGlu)}-[dDap](Benzoyl(4-SiFtBu2))[d(γGlu)][d(γGlu)][d(γGlu)][d(γGlu)]AYGW[Nle]DF-NH2)
logD [1]: -2.26 ± 0.05

Structure (SMILES): CCCC[C@H](NC(=O)[C@H](Cc1c[nH]c2ccccc12)NC(=O)CNC(=O)[C@H](Cc1ccc(O)cc1)NC(=O)[C@H](C)NC(=O)CC[C@@H](NC(=O)CC[C@@H](NC(=O)CC[C@@H](NC(=O)CC[C@@H](NC(=O)CC[C@@H](NC(=O)[C@@H](CNC(=O)c1ccc([Si](F)(C(C)(C)C)C(C)(C)C)cc1)NC(=O)CC[C@@H](NC(=O)CC[C@H](C(=O)O)N1CCN(CC(=O)O)CCN(CC(=O)O)CCN(CC(=O)O)CC1)C(=O)O)C(=O)O)C(=O)O)C(=O)O)C(=O)O)C(=O)O)C(=O)N[C@@H](CC(=O)O)C(=O)N[C@@H](Cc1ccccc1)C(N)=O [[nat/177Lu]Lu-(R)-DOTAGA-rhCCK-15, metal not drawn] ({X1-d(γGlu)}-[dDap](Benzoyl(4-SiFtBu2))[d(γGlu)][d(γGlu)][d(γGlu)][d(γGlu)][d(γGlu)]AYGW[Nle]DF-NH2)
logD [1]: -2.5 ± 0.02

Structure (SMILES): CCCC[C@H](NC(=O)[C@H](Cc1c[nH]c2ccccc12)NC(=O)CNC(=O)[C@H](Cc1ccc(O)cc1)NC(=O)[C@H](C)NC(=O)CC[C@@H](NC(=O)CC[C@@H](NC(=O)CC[C@@H](NC(=O)CC[C@@H](NC(=O)CC[C@@H](NC(=O)CC[C@@H](NC(=O)CC[C@@H](NC(=O)[C@@H](CNC(=O)c1ccc([Si](F)(C(C)(C)C)C(C)(C)C)cc1)NC(=O)CC[C@H](C(=O)O)N1CCN(CC(=O)O)CCN(CC(=O)O)CCN(CC(=O)O)CC1)C(=O)O)C(=O)O)C(=O)O)C(=O)O)C(=O)O)C(=O)O)C(=O)O)C(=O)N[C@@H](CC(=O)O)C(=O)N[C@@H](Cc1ccccc1)C(N)=O [[nat/177Lu]Lu-(R)-DOTAGA-rhCCK-17, metal not drawn]
logD [1]: -2.1 ± 0.06

Structure (SMILES): CCCC[C@H](NC(=O)[C@H](Cc1c[nH]c2ccccc12)NC(=O)CNC(=O)[C@H](Cc1ccc(O)cc1)NC(=O)[C@H](C)NC(=O)CC[C@@H](NC(=O)CC[C@@H](NC(=O)CC[C@@H](NC(=O)CC[C@@H](NC(=O)CC[C@@H](NC(=O)CC[C@@H](NC(=O)CC[C@@H](NC(=O)CC[C@@H](NC(=O)[C@@H](CNC(=O)c1ccc([Si](F)(C(C)(C)C)C(C)(C)C)cc1)NC(=O)CC[C@H](C(=O)O)N1CCN(CC(=O)O)CCN(CC(=O)O)CCN(CC(=O)O)CC1)C(=O)O)C(=O)O)C(=O)O)C(=O)O)C(=O)O)C(=O)O)C(=O)O)C(=O)O)C(=O)N[C@@H](CC(=O)O)C(=O)N[C@@H](Cc1ccccc1)C(N)=O [[nat/177Lu]Lu-(R)-DOTAGA-rhCCK-18, metal not drawn]
logD [1]: -2.16 ± 0.09

logD (pH 7.4): -4.38 ± 0.05
Structure (SMILES): CCCC[C@H](NC(=O)[C@H](Cc1c[nH]c2ccccc12)NC(=O)CNC(=O)[C@H](Cc1ccc(O)cc1)NC(=O)[C@H](C)NC(=O)CC[C@@H](NC(=O)CC[C@@H](NC(=O)CC[C@@H](NC(=O)CC[C@@H](NC(=O)CC[C@@H](NC(=O)CC[C@@H](NC(=O)CN1CCN(CC(=O)O)CCN(CC(=O)O)CCN(CC(=O)O)CC1)C(=O)O)C(=O)O)C(=O)O)C(=O)O)C(=O)O)C(=O)O)C(=O)N[C@@H](CC(=O)O)C(=O)N[C@@H](Cc1ccccc1)C(N)=O [[nat/177Lu]Lu-DOTA-PP-γ-F11N, metal not drawn] ({DOTA-d(γGlu)-d(γGlu)-d(γGlu)-d(γGlu)-d(γGlu)-d(γGlu)}-AYGW[Nle]DF-NH2)

logD (pH 7.4): -4.3 ± 0.08
Structure (SMILES): CSCC[C@H](NC(=O)[C@H](Cc1c[nH]c2ccccc12)NC(=O)CNC(=O)[C@H](Cc1ccc(O)cc1)NC(=O)[C@H](C)NC(=O)CC[C@@H](NC(=O)CC[C@@H](NC(=O)CC[C@@H](NC(=O)CC[C@@H](NC(=O)CC[C@@H](NC(=O)CC[C@@H](NC(=O)CN1CCN(CC(=O)O)CCN(CC(=O)O)CCN(CC(=O)O)CC1)C(=O)O)C(=O)O)C(=O)O)C(=O)O)C(=O)O)C(=O)O)C(=O)N[C@@H](CC(=O)O)C(=O)N[C@@H](Cc1ccccc1)C(N)=O [[nat/177Lu]Lu-γ-CP04, metal not drawn]
